How the values were obtained:
[1] = test system: HCT116 cells expressing E. coli NfsA nitroreductase (NfsA_Ec); assay: Low cell density anti-proliferative (IC50) assay, HCT116 NfsA_Ec vs HCT116 WT; type: cell-based; settings: aerobic, five days regrowth; for IC50: Escherichia coli, HCT-116, four hour drug exposure
Experimental: (§1) Next, we evaluated the compounds for activity with the major nitroreductase from E. coli, NfsA (NfsA_Ec), or the human aldo-keto reductase AKR1C3, using a low cell density anti-proliferative (IC50) assay (Figure 2). The sensitivity of HCT116 wild-type (WT) cells and HCT116 cells over-expressing either NfsA_Ec or AKR1C3 was examined under aerobic conditions.
(§2) The anti-proliferative IC50 was determined as the concentration of prodrug required for 50% inhibition of cell growth, following drug exposure for four hours, then five days regrowth in the absence of drug. Assays were performed under oxic or anoxic conditions as described previously, the latter by using a 5% H2/palladium catalyst scrubbed Bactron anaerobic chamber (Sheldon Manufacturing, Cornelius, OR, USA) to achieve severe anoxia (<10 ppm O2 gas phase) during prodrug exposure.
Figure 2 In vitro anti-proliferative activity of the novel lipophilic analogue series in HCT116 cells expressing AKR1C3 and E. coli NfsA (NfsA_Ec). IC50 values were determined as the concentration of drug required to inhibit cell growth by 50% of untreated controls following four hour drug exposure, with washing and regrowth for five days. Respective IC50 ratios (WT:AKR1C3 or WT:NfsA_Ec) are indicated above the bars for each compound. TEXT PRINTED IN THE PICTURE: PR-104A: HCT116 AKR1C3: 84; HCT116 NfsA_Ec: 2680 | 1: HCT116 AKR1C3: 1.8; HCT116 NfsA_Ec: 242 | 2: HCT116 AKR1C3: 1.6; HCT116 NfsA_Ec: 1431 | 3: HCT116 AKR1C3: 2.3; HCT116 NfsA_Ec: 913 | 4: HCT116 AKR1C3: 3.3; HCT116 NfsA_Ec: 594 | 5: HCT116 AKR1C3: 3.3; HCT116 NfsA_Ec: 152 | 6: HCT116 AKR1C3: 2.4; HCT116 NfsA_Ec: 741 | 7: HCT116 AKR1C3: 3.2; HCT116 NfsA_Ec: 174 | 8: HCT116 AKR1C3: 4.9; HCT116 NfsA_Ec: 81 | 9: HCT116 AKR1C3: 3.4; HCT116 NfsA_Ec: 147 DOUBTS OF THE COPYIST ABOUT THIS PICTURE: All values: the picture prints no measure or unit for the grey numbers above the blue and red bars. […] Each is given only with the cell line of the bar it stands over, as named in the picture's key.

[2] = LogD7.4 by low-volume octanol/PBS shake-flask method; type: physicochemical; settings: n-octanol/PBS; octanol-water partition coefficient, shake-flask method at pH 7.4
Experimental: Distribution ratios (LogD7.4) were determined by a low-volume octanol/PBS shake-flask method. Briefly, saturated solutions of octanol and PBS were prepared by mixing equal volumes of n-octanol and PBS (pH 7.4) before being left for three days. The octanol and PBS phases were then carefully separated and left to stand for at least 24 h. Stock solutions (0.1–0.5 mM) of each compound were prepared in octanol saturated with PBS. The stock solutions were diluted with octanol saturated with PBS containing and inter-assay control (acridone) to a final compound concentration of 50 μM. Aliquots (450 μL) were then taken in triplicate, and 450 μL of PBS saturated with octanol was added into amber tubes. The tubes were then sealed in parafilm and rotated for 90 min at 30 rpm to equilibrate. After centrifugation (15,000× g, 5 min, 20°C) the octanol and PBS phases were separated into different tubes and the octanol phase diluted with methanol (1:5 v/v). Both phases were analyzed by HPLC (diode-array detector at 364 ± 10 nm) by injecting 50 μL of the PBS phase and 15 μL of the diluted octanol phase. The results were then expressed as the log ratio of the peak areas obtained from the octanol and PBS phases corrected for dilution and injection volume.

[3] = test system: 97% HCT116 WT/3% HCT116 NfsA_Ec MCLs; assay: 3D multicellular layer (MCL) bystander assay, 97% HCT116 WT/3% HCT116 NfsA_Ec; type: cell-based; settings: 10 µM prodrug, five hours
Description: We then examined our compounds in a high cell density, 3D multi-cellular layer (MCL) assay in order to determine tissue penetration capacity of the active metabolite(s) and the potential for an efficient bystander effect. Mixed MCLs consisting of a small percentage HCT116 NfsA_Ec cells (3%) in the presence of HCT116 WT cells (97%) were used as a robust screen for efficient bystander cell kill. Here, active cytotoxic metabolites can diffuse out of the minority NfsA_Ec ‘prodrug-activating’ cell population into the WT ‘target’ population, causing death of cells that would not normally be sensitive to that concentration of prodrug.
(§3) Multicellular layers (MCLs) were grown, and bystander effect assays were performed as previously reported.
(§4) Figure 3 Lipophilic structure–activity relationship for NfsA_Ec in three dimensions. (A) Plating efficiency in 100% HCT116 WT and 97% HCT116 WT/3% HCT116 NfsA_Ec MCLs exposed to 10 µM prodrug for five hours before dissociation and plating to determine clonogenic survival. (B) Correlation between Log cell kill and LogD7.4. R = 0.63, R^2 = 0.40. Log cell kill = Log CS (control)–Log CS (treated), where CS is the number of clonogenic survivors per MCL.

[4] = test system: HCT116 cells over-expressing AKR1C3; assay: Low cell density anti-proliferative (IC50) assay, HCT116 AKR1C3 vs HCT116 WT; type: cell-based, human; settings: HCT116 WT vs HCT116 AKR1C3, aerobic, four hour exposure, five days regrowth
Experimental: as §1, §2
Figure 2 In vitro anti-proliferative activity of the novel lipophilic analogue series in HCT116 cells expressing AKR1C3 and E. coli NfsA (NfsA_Ec). IC50 values were determined as the concentration of drug required to inhibit cell growth by 50% of untreated controls following four hour drug exposure, with washing and regrowth for five days. Respective IC50 ratios (WT:AKR1C3 or WT:NfsA_Ec) are indicated above the bars for each compound. […]

[5] = test system: H1299 cells expressing E. coli NfsA; assay: Anti-proliferative IC50 assay, H1299 cells expressing E. coli NfsA; type: cell-based; settings: for IC50: Escherichia coli, NCI-H1299, H1299 NfsA_Ec, 4 hour drug exposure, regrowth for five days; for WT:NfsA_Ec IC50 ratio: H1299 WT vs H1299 NfsA_Ec
Experimental: as §2
(§5) Supplementary Table S2. In vitro anti-proliferative activity of the three lead prodrug compounds in H1299 cells expressing E. coli NfsA. IC50 values were determined as the concentration of drug required to inhibit cell growth by 50% of untreated controls following 4 hour drug exposure, with washing and regrowth for five days.
(§6) Compound WT NfsA_Ec Ratio

H1299 WT cells = assay: Anti-proliferative IC50 assay, H1299 WT cells; type: cell-based; settings: Homo sapiens, NCI-H1299, 4 hour drug exposure, regrowth for five days
Experimental: as §2, §5, §6

[6] = design: method as in PMID 34959631; settings: mice, PR-104 at 388 µmol/kg (human equivalent dose); cited from earlier work
[7] = biological target: T1, purified His6-tagged NfsA_Ec (Escherichia coli, UniProt P17117); design: method as in earlier work; settings: apparent, 250 µM NADPH; cited from earlier work
T1 construct: His6; made in house
T1 sequence (P17117 1-240): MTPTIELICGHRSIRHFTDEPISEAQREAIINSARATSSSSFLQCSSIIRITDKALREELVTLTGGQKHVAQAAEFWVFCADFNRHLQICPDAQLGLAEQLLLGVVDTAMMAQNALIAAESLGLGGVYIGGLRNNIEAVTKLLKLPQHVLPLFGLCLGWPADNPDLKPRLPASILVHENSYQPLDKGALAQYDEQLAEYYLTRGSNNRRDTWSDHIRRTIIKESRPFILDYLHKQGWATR

100% HCT116 AKR1C3 MCLs = assay: 3D multicellular layer (MCL) assay, 100% HCT116 AKR1C3; type: cell-based, human; settings: 10 µM prodrug, five hours
Experimental: Similar to the 3D NfsA_Ec screen, increased lipophilicity also tracked with increased LCK in 100% AKR1C3-expressing MCLs (R = 0.78, R^2 = 0.61). […] These three lead compounds were taken forward into in vivo studies.
as §3
as §4, with “4” for “3”, “AKR1C3” for “NfsA_Ec”, “100%” for “97%”, “AKR1C3” for “WT/3% HCT116 NfsA_Ec”, “0.78,” for “0.63,”, “0.61.” for “0.40.”

Structure (SMILES) | IC50 [1] [nM] | logD at 90 min [2] | Log cell kill (LCK) [3] | WT:AKR1C3 IC50 ratio [4] [fold] | WT:NfsA_Ec IC50 ratio ([1]; HCT116 WT vs HCT116 NfsA_Ec, four hour exposure) [fold] | IC50 [5] [nM] | WT:NfsA_Ec IC50 ratio [5] [fold] | IC50 (H1299 WT cells) [nM] | Plasma AUCfree of PR-104A [6] [µM-h] | Km [7] [µM] | kcat [7] [s⁻¹] | Log cell kill (LCK) (100% HCT116 AKR1C3 MCLs) | melting point [°C]
CCCS(=O)(=O)c1cc([N+](=O)[O-])c(C(=O)N(C)CCO)cc1N(CCBr)CCBr [Compound 9] | 1000 | 2.1 | 1.6 |  |  |  |  |  |  |  |  |  | 
CS(=O)(=O)OCCN(CCBr)c1c(C(=O)NCCO)cc([N+](=O)[O-])cc1[N+](=O)[O-] [PR-104A, reference compound] | 30 |  |  | 84 | 2680 | 46 ± 3 | 2848 | 131000 ± 9900 | 38 | 100 ± 11 | 12 ± 1.4 |  | 
CCCN(CCO)C(=O)c1cc(N(CCBr)CCBr)c(S(C)(=O)=O)cc1[N+](=O)[O-] [Compound 4] | 170 | 2.1 | 3.06 |  |  |  |  |  |  |  |  |  | 
CN(CCO)C(=O)c1cc(N(CCBr)CCBr)c(S(C)(=O)=O)cc1[N+](=O)[O-] [Compound 2, 5-(Bis(2-bromoethyl)amino)-N-(2-hydroxyethyl)-N-methyl-4-(methylsulfonyl)-2-nitrobenzamide] |  | 1.2 |  |  |  | 170 ± 30 | 1029 | 175000 ± 3500 |  |  |  | ≤ 0.11 | 138 to 140
CS(=O)(=O)c1cc([N+](=O)[O-])c(C(=O)NCCO)cc1N(CCBr)CCBr [Compound 1, 5-(Bis(2-bromoethyl)amino)-N-(2-hydroxyethyl)-4-(methylsulfonyl)-2-nitrobenzamide] |  | 1 |  |  |  | 1180 ± 40 | 141 | 166000 ± 26000 |  |  |  | ≤ 0.11 | 
